Test system: NCI-H295R
Test: IC50 (antiproliferative, ATP content)
Details: 48 h
Method in brief: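 Following overnight culture of adrenocortical carcinoma cells (1500 per well) in 1536-well plates with serum-free ITS-supplemented DMEM, library compounds were pin-transferred at 8 final concentrations from 0.6 nM to 46 µM. Incubation lasted 48 h at 37 °C, 5% CO2, and the CellTiter-Glo signal was read after 20 min at room temperature. Data were fitted with a four-parameter logistic model. Each IC50 came from that fit after normalisation to vehicle and positive-control wells, and compounds without a concentration response were reported as above the top dose.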

IC50	Compound
> 46 µM	c1ccc(-c2nc[nH]c2-c2ccccc2)cc1
> 46 µM	NS(=O)(=O)c1cc2c(cc1C(F)(F)F)NC(Cc1ccccc1)NS2(=O)=O (stereo not given)
> 46 µM	NNC(=O)CP(=O)(c1ccccc1)c1ccccc1
> 46 µM	Cc1ccc(S(=O)(=O)NC(=O)N[C@@H](C)Cc2ccccc2)cc1
> 46 µM	O=C1c2ccccc2C(=O)C1c1ccc(Br)cc1
> 46 µM	C[C@@H]1C[C@H]2[C@@H]3C[C@H](F)C4=CC(=O)C=C[C@]4(C)[C@@]3(Cl)[C@@H](O)C[C@]2(C)[C@H]1C(=O)COC(=O)C(C)(C)C
> 46 µM	CC(=O)Oc1cccc(C)c1
> 46 µM	CC1(C)S[C@@H]2[C@H](NC(=O)C(C(=O)[O-])c3ccccc3)C(=O)N2[C@H]1C(=O)[O-].[Na+].[Na+] (stereo not given in full)
> 46 µM	CC(CN1c2ccccc2Sc2cccnc21)N(C)C.Cl (stereo not given)
> 46 µM	CN(Cc1ccccc1)Cc1ccccc1
> 46 µM	CC(C(=O)O)c1ccc(-c2ccccc2)c(F)c1 (stereo not given)
> 46 µM	CN(C)c1ccc(O)c2c1C[C@H]1C[C@H]3[C@H](N(C)C)C(O)=C(C(N)=O)C(=O)[C@@]3(O)C(O)=C1C2=O.Cl
> 46 µM	Cc1ncc(COP(=O)(O)O)c(C=O)c1O.O
> 46 µM	C=C[C@@]1(C)CC(=O)[C@]2(O)[C@@]3(C)[C@@H](O)CCC(C)(C)[C@@H]3[C@H](O)[C@H](OC(C)=O)[C@@]2(C)O1
> 46 µM	O=C1C=CC([C@](N)2CC(C)=C3)=C(C[C@H]3/[C@]2=C\C)N1
> 46 µM	CN(C)CCCN1c2ccccc2Sc2ccccc21.Cl
> 46 µM	CC(O)(P(=O)([O-])O)P(=O)([O-])O.[Na+].[Na+]
> 46 µM	C1CCN2C[C@@H]3C[C@@H](CN4CCCC[C@@H]34)[C@H]2C1
> 46 µM	Cc1c(C(=O)NCCO)[n+]([O-])c2ccccc2[n+]1[O-]
> 46 µM	COc1cc(Cc2cnc(N)nc2N)cc(OC)c1OC
> 46 µM	O=C1/C(=C2\Nc3ccccc3C2=O)Nc2ccccc21
> 46 µM	COc1c2occc2c(OC)c2c(=O)cc(C)oc12
> 46 µM	CC(=O)Nc1nnc(S(N)(=O)=O)s1
> 46 µM	C=CCc1cc(OC)c(O)c(C(=O)NCCO)c1
> 46 µM	CC(C)=CCC/C(C)=C/CC/C(C)=C/CC/C(C)=C/CC1=C(C)C(=O)c2ccccc2C1=O
> 46 µM	NC(=O)OCC(O)COc1ccc(Cl)cc1 (stereo not given)

IC50	Compound
> 46 µM	Cc1cc2cc3c(C)cc(=O)oc3c(C)c2o1
> 46 µM	CCN(CC)CCNC(=O)c1cc(Br)c(N)cc1OC
> 46 µM	O=C1[C@H]([C@H](C)C)CC[C@@H](C)C1
> 46 µM	CCOc1cc(CC(=O)N[C@@H](CC(C)C)c2ccccc2N2CCCCC2)ccc1C(=O)O
> 46 µM	CC1(O)CCC(C(C)(C)O)CC1 (stereo not given)
> 46 µM	CN1C(CCl)Nc2cc(Cl)c(S(N)(=O)=O)cc2S1(=O)=O (stereo not given)
> 46 µM	O=C(CN1CCNCC1)NC1CCCCC1
> 46 µM	O=C(O)Cc1csc(-c2ccc(Cl)cc2)n1
> 46 µM	O=c1cc(O)c(Cl)c[nH]1
> 46 µM	CC(=O)N[C@H]1C(O)O[C@H](CO)[C@@H](O)[C@@H]1O (stereo not given in full)
> 46 µM	C=CCN1CCCC1CNC(=O)c1cc(S(N)(=O)=O)cc(OC)c1OC (stereo not given)
> 46 µM	COc1ccc2c(c1)C(=O)N(CCc1ccc(S(=O)(=O)NC(=O)NC3CCCCC3)cc1)C(=O)C2(C)C
> 46 µM	COc1cc2c3cc1Oc1cc(ccc1O)C[C@@H]1c4c(cc(OC)c(O)c4Oc4ccc(cc4)C[C@@H]3N(C)CC2)CC[N+]1(C)C.Cl.[Cl-]
> 46 µM	O=C1[C@H](CC[C@@H](C4=CC=C(F)C=C4)O)[C@@H]([C@]3=CC=C(O)C=C3)N1C2=CC=C(F)C=C2
> 46 µM	O=c1cc(CO)occ1O
> 46 µM	NC(=S)N/N=C/c1cccnc1
> 46 µM	O=C(/C=C/c1ccc(O)c(O)c1)O[C@@H]1C[C@@](OC(=O)/C=C/c2ccc(O)c(O)c2)(C(=O)O)C[C@@H](O)[C@@H]1O
> 46 µM	COCCOC(=O)C1=C(C)NC(C)=C(C(=O)OC(C)C)C1c1cccc([N+](=O)[O-])c1 (stereo not given)
> 46 µM	C\C1=C\N(C(=O)NC1=O)[C@H]2\C=C/[C@@H](CO)O2
> 46 µM	Cc1cnc(NC(=O)C2=C(O)c3ccccc3S(=O)(=O)N2C)s1
> 46 µM	[C@]13([C@@](C(=O)CO)(CC[C@H]1[C@@H]2CCC=4[C@@]([C@H]2[C@H](C3)O)(\C=C/C(C=4)=O)C)O)C
> 46 µM	CCN(CC)CCNC(=O)c1ccc(NC(C)=O)cc1.Cl
> 46 µM	COc1cc2ncnc(Nc3ccc(F)c(Cl)c3)c2cc1OCCCN1CCOCC1
> 46 µM	CC(=O)Oc1ccc(C(=C2CCCCC2)c2ccc(OC(C)=O)cc2)cc1
> 46 µM	COc1ccc2c(c1)c1c3n2CCN(C)C3=NCC1
> 46 µM	C[C@]12CCC(=O)C=C1CC[C@H]1[C@@H]3CC[C@](O)(C(=O)CO)[C@@]3(C)C[C@H](O)[C@@]12F

The remaining lines, values behind:

Compound	IC50
CCn1cc(C(=O)O)c(=O)c2cnc(N3CCCC3)nc21	> 46 µM
FCOC(C(F)(F)F)C(F)(F)F	> 46 µM
CCOC(=O)OC(C)OC(=O)[C@@H]1N2C(=O)[C@@H](NC(=O)[C@H](N)c3ccccc3)[C@H]2SC1(C)C.Cl (stereo not given in full)	> 46 µM
NS(=O)(=O)c1cc2c(cc1Cl)N=C(CSCc1ccccc1)NS2(=O)=O	> 46 µM
N=C(N)NC(=O)c1nc(Cl)c(N)nc1N	> 46 µM
COP(=O)(OC)OC=C(Cl)Cl	> 46 µM
O=C(O)/C=C\C(=O)O.c1ccc2nc(N3CCNCC3)ccc2c1	> 46 µM
Cc1nc2c([nH]1)c(=O)n(C)c(=O)n2Cc1ccco1	> 46 µM
CCOC(=O)C1(c2ccccc2)CCN(CCC(C#N)(c2ccccc2)c2ccccc2)CC1.Cl	> 46 µM
CCCCCC(C)N.CCCCCC(C)N.O=S(=O)(O)O (stereo not given)	> 46 µM
O=C(O)CCC(=O)O.c1ccc(C2(c3ccccc3)CC2C2=NCCN2)cc1 (stereo not given)	> 46 µM
Cl.N[C@H]1C(O)O[C@H](CO)[C@@H](O)[C@@H]1O (stereo not given in full)	> 46 µM
Cc1cc(CC(=O)[O-])n(C)c1C(=O)c1ccc(Cl)cc1.[Na+]	> 46 µM
[N-]=[N+]=CC(=O)OC[C@H](N)C(=O)O	> 46 µM
CC(CN(C)C)CN1c2ccccc2CCc2ccccc21.O=C(O)/C=C\C(=O)O (stereo not given)	> 46 µM
CC(=O)N(O)CCCCCNC(=O)CCC(=O)N(O)CCCCCNC(=O)CCC(=O)N(O)CCCCCN.CS(=O)(=O)O	> 46 µM
FC(F)(F)C(F)(F)C(F)(F)C(F)(F)C(F)(F)C(F)(F)F	> 46 µM
C[N+](C)(C)CCOC(N)=O.[Cl-]	> 46 µM
C=CC(=O)O	> 46 µM
COC(=O)[C@@H](N)CCCN/C(N)=N/[N+](=O)[O-]	> 46 µM
O=C1CCO1	> 46 µM
CCC1C2CC3[C@@H]4N(C)c5ccccc5C45CC(C2[C@H]5O)N3[C@@H]1O (stereo not given in full)	> 46 µM
CCC(C)(C)c1ccc(O)cc1	> 46 µM
Nc1ncnc2c1ncn2[C@H]1CC[C@@H](CO)O1	> 46 µM

Compound	IC50
COc1cc(N)c(Cl)cc1C(=O)NC1CCN(Cc2ccccc2)CC1.O=C(O)/C=C\C(=O)O	> 46 µM
O=C(O[C@@H]2C[C@H](CC3)[N@@+](C)(C)[C@H]3C2)C(CO)C1=CC=CC=C1.[Br-] (stereo not given in full)	> 46 µM
O=C(O)Cn1c(C(=O)Nc2nc(-c3ccccc3Cl)cs2)cc2ccccc21	> 46 µM
O=C1[C@H]3[C@H](C3)[C@@]([C@]4([H])[C@@]([C@@]5([H])[C@]([C@@](CC5)(OC(C)=O)[C@@](C)=O)(C)CC4)([H])C=C2Cl)(C)C2=C1	> 46 µM
COc1cc(N)c(Cl)cc1C(=O)NC1CCN(CCCOc2ccc(F)cc2)CC1OC (stereo not given)	> 46 µM
CN1[C@@H]2CC[C@H]1C[C@@H](OC(=O)C(CO)c1ccccc1)C2 (stereo not given in full)	> 46 µM
O=P([O-])([O-])OP(=O)([O-])[O-].[Na+].[Na+].[Na+].[Na+]	> 46 µM
O=C(CCCCCCCCCCCCC1CCCC1)Nc1ccc(S(=O)(=O)c2ccc(NC(=O)CCCCCCCCCCCCC3CCCC3)cc2)cc1	> 46 µM
Cl.Nc1c(Br)cc(Br)cc1CN[C@H]1CC[C@H](O)CC1	> 46 µM
C=CCN1CC[C@]23c4c5ccc(O)c4O[C@H]2[C@@H](O)C=C[C@H]3[C@H]1C5.Cl	> 46 µM
Clc1ccc2c(c1)C(c1ccccc1)=NCc1nncn1-2	> 46 µM
CO/N=C(\C(=O)N[C@@H]1C(=O)N2C(C(=O)O)=C(CSc3nnnn3C)CS[C@H]12)c1csc(N)n1.CO/N=C(\C(=O)N[C@@H]1C(=O)N2C(C(=O)O)=C(CSc3nnnn3C)CS[C@H]12)c1csc(N)n1.Cl	> 46 µM
CN1C(C(=O)Nc2ccccn2)C(=O)c2sc(Cl)cc2S1(=O)=O (stereo not given)	> 46 µM
O=C(CCCN1CCC2(CC1)C(=O)NCN2c1ccccc1)c1ccc(F)cc1	> 46 µM
C[C@]12CCC(=O)C[C@@H]1CC[C@@H]1[C@@H]2CC[C@]2(C)[C@@H](O)CC[C@@H]12	> 46 µM
CC(O)C(=O)O (stereo not given)	> 46 µM
CCOP(=S)(OCC)Oc1cc(C)nc(C(C)C)n1	> 46 µM
Nc1nc(Cl)nc2c1ncn2[C@H]1C[C@H](O)[C@@H](CO)O1	> 46 µM
CNCc1ccccc1.Cl	> 46 µM
O=C(COc1ccc(Cl)cc1)OCCNC12CC3CC(CC(C3)C1)C2	> 46 µM
O=C1CCC(=O)N1CO	> 46 µM
Cc1ncc(CO)c(C=O)c1O	> 46 µM
CC1(C)C(C=C(Cl)Cl)C1C(=O)OCc1cccc(Oc2ccccc2)c1 (stereo not given)	> 46 µM
N#Cc1c(N(CC(=O)[O-])CC(=O)[O-])sc(C(=O)[O-])c1CC(=O)[O-].O.O.O.O.O.O.O.[Sr+2].[Sr+2]	> 46 µM
